# Assay results taken from patent US10377818B2, “Method of treating glioma” (The Board of Trustees of the Leland Stanford Junior …, priority 2015, dated 2019).
# Like-named read-outs stand apart in the source and are kept apart here.
# Columns and labels:
# secreted NLGN3 = experiment: Secreted NLGN3 in active CM of acute cortical slices incubated with protease inhibitors, Western blot; assay type: cell-based, mouse; conditions: slices incubated with protease inhibitor during optogenetic stimulation, preliminary experiments
# Description: (§1) Thy1::ChR2 or WT mice between the age of 4-7 weeks were briefly exposed to CO2, and immediately decapitated. Extracted brains were placed in oxygenated sucrose solution and sliced in 350-μm sections using a vibratome (Leica VT 1200S, Buffalo Grove, Ill.). Slices were then placed in buffering solution (aCSF; 119 mM NaCl, 11 mM D-glucose, 25 mM NaHCO3, 2.5 mM KCl, 1.2 mM NaH2PO4, 2.3 mM MgCl2, and 2.5 mM CaCl2) and allowed to recover for at least an hour. After recovery, slices were then moved into a 24 well plate and stimulated using a blue-light LED from a microscope objective. The stimulation paradigm mirrored in vivo experiments, using 20-Hz pulses of blue light for a 30 s on, 90 s off cycle over a period of 30 minutes. Surrounding medium was then collected for immediate use or frozen for future experiments.
# A series of similar preliminary experiments were performed in which acute cortical slices were incubated with different protease inhibitors during optogenetic stimulation and then the active CM was analyzed by Western blot for secreted NLGN3.
# Role for MMP9 in NLGN3 secretion: Acute cortical slices from Thy1::ChR2 mice were optogenetically-stimulated in the presence or absence of protease inhibitors as indicated. Conditioned media was analyzed by Western blot for secreted NLGN3 content.
# SU-pcGBM2 cells [1] = experiment: EdU incorporation assay, proliferation index of pHGG cells (SU-pcGBM2); assay type: cell-based, human; conditions: for effect on 50 nM NLGN3-induced increase in proliferation index: inhibitor 100 nM, EdU assay; for effect on proliferation index relative to aCSF control: recombinant candidate proteins at 100 nM for 24 hours; for effect on the proliferative effect of active CM: 100 nM TRKB inhibitor ANA12 in combination with 500 nM NRXN; for potency of proliferation promotion compared with NLGN3: pHGG cells, dose curves 0-100 nM
# [2] = system: NLGN3 mRNA in SU-pcGBM2 cells; experiment: qPCR of NLGN3 gene expression in SU-pcGBM2 cells; assay type: cell-based, human; conditions: for effect on soluble NLGN3-induced increase in NLGN3 gene expression: 50 nM NLGN3 plus inhibitor, BKM120 500 nM (FIG. 5E) or 100 nM (FIG. 29), RAD001 100 nM
# [3] = system: soluble NLGN3 in the CM (NLGN3 secretion); experiment: Soluble NLGN3 in CM of optogenetically stimulated acute cortical slices, 2D-PAGE and mass spectrometry; assay type: cell-based, mouse; conditions: slices incubated with inhibitor during optogenetic stimulation; pilot experiment
# Description: as §1
# pHGG cells = experiment: pHGG cell proliferation with active CM from slices stimulated in presence of protease inhibitor; assay type: cell-based, human; conditions: inhibitor present during optogenetic stimulation of slices
# Text: MMP inhibition abrogates activity-regulated glioma proliferation. Acute cortical slices were optogenetically-stimulated in the presence or absence of a protease inhibitor as in Example 14, and pHGG cells were exposed to the CM. As expected, active CM in the absence of protease inhibitors contained secreted NLGN3 (FIG. 37) and promoted glioma cell proliferation (FIG. 38).
# MMP inhibition in situ reduces activity-regulated glioma cell proliferation in vitro Active CM from Thy1::ChR2 cortical slices were incubated with either the multi-MMP inhibitor batimastat (A) or the ADAM17 inhibitor TAPI (B) during optogenetic stimulation and the active CM collected. Unconditioned media (aCSF) with or without inhibitor was used in control wells. Data shown as mean±SEM. One-way ANOVA, *P<0.05, ***P<0.001. n.s.=P>0.05.
# SU-pcGBM2 cells [4] = assay type: cell-based, human
molecule,measurement,setting,value
COc1ccc(S(=O)(=O)N2CCN(C(=O)OCc3ccccc3)CC2C(=O)NO)cc1 (stereo not drawn) [MMP9/13 Inhbitor II],secreted NLGN3 levels in active CM,secreted NLGN3,significant decrease in NLGN3 levels
"Cl.Nc1cc(C(F)(F)F)c(-c2cc(N3CCOCC3)nc(N3CCOCC3)n2)cn1 [BKM120, 5-(2,6-dimorpholin-4-ylpyrimidin-4-yl)-4-(trifluoromethyl)pyridin-2-amine hydrochloride]",effect on 50 nM NLGN3-induced increase in proliferation index,SU-pcGBM2 cells [1],blocked
same,effect on soluble NLGN3-induced increase in NLGN3 gene expression,[2]; 12 h,blocked the soluble NLGN3-induced increase in NLGN3 gene expression
same,effect on NLGN3 expression in the absence of soluble NLGN3 exposure,"[2]; BKM120 alone, 12 h",no effect on NLGN3 expression
ApoE: Recombinant candidate protein from proteomic analyses of cortical slice conditioned media,effect on proliferation index relative to aCSF control,SU-pcGBM2 cells [1],did not differ
"NRXN1β: Recombinant neurexin-1β (R&D Systems), binds NLGN3 with high affinity, used to deplete NLGN3",effect on the proliferative effect of active CM,SU-pcGBM2 cells [1],completely abrogates the proliferative effect of active CM
same,effect on proliferation index,SU-pcGBM2 cells [1]; NRXN1β alone (500 nM) added to aCSF or to CM from WT cortical slices,no effect on proliferation index
same,proliferation index,SU-pcGBM2 cells [1]; pHGG cells exposed to 50 nM NLGN3+500 nM NRXN1β,0.28±0.01
same,proliferation index,SU-pcGBM2 cells [1]; pHGG cells exposed to Thy1::ChR2 CM+NRXN1β (500 nM),0.34±0.01
"O=C(NO)[C@@H](Cc1ccccc1)NS(=O)(=O)c1ccc(-c2ccccc2)cc1 [MMP2/9 inhibitor SCBT inhibitor II, (2R)—N-hydroxy-3-phenyl-2-[(4-phenylphenyl)sulfonylamino]propanamide]",secreted NLGN3 levels in active CM,secreted NLGN3,significant decrease in NLGN3 levels
CNC(=O)[C@@H](NC(=O)[C@H](CCCc1ccccc1)[C@H](C)N(O)C=O)C(C)(C)C [GI254023X],reduction in soluble NLGN3 in the CM,[3],~50%
TAPI,secreted NLGN3 levels in active CM,secreted NLGN3,no effect on NLGN3 levels was observed
same,secreted NLGN3 levels in active CM,secreted NLGN3; listed as ADAM17 inhibitor,did not decrease NLGN3 levels
same,effect on the mitogenic effect of active CM,pHGG cells,did not alter the mitogenic effect of active CM
"O=C(Nc1ccccc1C(=O)NC1CCCCNC1=O)c1cc2ccccc2s1 (stereo not drawn) [ANA12, reference compound]",effect on the proliferative effect of active CM,SU-pcGBM2 cells [1],completely abrogates the proliferative effect of active CM
"CO[C@H]1C[C@@H]2CC[C@@H](C)[C@@](O)(O2)C(=O)C(=O)N2CCCC[C@H]2C(=O)O[C@H]([C@H](C)C[C@@H]2CC[C@@H](OCCO)[C@H](OC)C2)CC(=O)[C@H](C)/C=C(\C)[C@@H](O)[C@@H](OC)C(=O)[C@H](C)C[C@H](C)/C=C/C=C/C=C/1C [RAD001, reference compound]",effect on 50 nM NLGN3-induced increase in proliferation index,SU-pcGBM2 cells [1],blocks 50 nM NLGN3-induced proliferation
same,effect on soluble NLGN3-induced increase in NLGN3 gene expression,[2]; 12 h,prevented the feed-forward effect of NLGN3 on NLGN3 gene expression
"EGF: Epidermal growth factor (Shenandoah), ligand known to stimulate the PI3K pathway",effect on glioma cell NLGN3 expression,"[2]; 50 nM EGF, 12 hour vs vehicle",no effect was found
"GRP78: Recombinant 78-kDa glucose-regulated protein (Abcam), known glioma mitogen",potency of proliferation promotion compared with NLGN3,SU-pcGBM2 cells [1],less potently than NLGN3
same,effect on proliferation index relative to aCSF control,SU-pcGBM2 cells [1],promote glioma cell proliferation
"NC1=N[C@H](O)[C@H]2[C@H]3O[C@]4(O)O[C@@H]([C@@H](O)[C@@]2(N1)[C@@H]4O)[C@]3(O)CO [TTX, tetrodotoxin]",proliferation index,SU-pcGBM2 cells [4],~0.25
CC(C)ON(CC(=O)NO)S(=O)(=O)c1ccc(-c2ccccc2)cc1 [ARP100],secreted NLGN3 levels in active CM,secreted NLGN3,No detectable decrease in secreted NLGN3
"BDNF: Recombinant brain-derived neurotrophic factor (R&D Systems), candidate mitogen",potency of proliferation promotion compared with NLGN3,SU-pcGBM2 cells [1],less potently than NLGN3
same,effect on proliferation index relative to aCSF control,SU-pcGBM2 cells [1],promote glioma cell proliferation
